Test results reported in patent US20240261375A1, “PHARMACEUTICAL COMPOSITION FOR TREATING OR PREVENTING DISORDER ASSOCIATED WITH ADMINISTRATION OF ANTICANCER AGENT” (LTT BIO-PHARMA CO., LTD., priority 2021, published 2024).

Columns and labels:
[1] = system: oxaliplatin-induced allodynia model rats; experiment: Von Frey test in oxaliplatin-induced allodynia model rats; type: in vivo, rat; conditions: OXA 4 mg/kg i.p. 8 doses, prophylactic, FIG. 1
Method: Six to eight-week-old male SD rats (from 200 to 400 g) were used, and oxaliplatin (hereinafter may be abbreviated as OXA) was administered into the peritoneal cavity of rats at a dose of 4 mg/kg. A total of eight doses were given with a regimen of twice weekly for four weeks (Days 1, 2, 7, 8, 13, 14, 19, and 20). A solvent for OXA, i.e., a 5% glucose solution, was similarly administered to a control group. Elplat I.V. Infusion Solution 100 mg (Yakult Honsha Co., Ltd.) was used as OXA.
Laboratory animals were divided into five groups: a control group, an OXA administration group, and groups each receiving administration of OXA and PC-SOD 0.1, 0.3, or 1 mg/kg (OXA+PC-SOD administration groups) (n=8 per group). In an experiment of prevention, PC-SOD was administered into the caudal vein from 5 to 15 minutes after administration of OXA in the OXA+PC-SOD administration group. […]
Data were expressed with mean±standard error (SEM). Statistical processing of the results was performed by Student's t test for comparison of two groups and ANOVA one way test (post-hoc Tukey's test) for comparison of three or more groups, and a statistically significant difference was determined when the hazard ratio was 5% or lower (*, **, and *** in the figures: p<0.05, p<0.01, and p<0.001, respectively).

[2] = system: intraepidermal nerve fiber of OXA-treated rats; experiment: Assessment of density of intraepidermal nerve fiber (PGP9.5 staining); type: in vivo, rat; conditions: OXA+PC-SOD 1 mg/kg; FIG. 3
Method: Rat epidermis tissue was fixed with a 4% paraformaldehyde fixative and washed with PBS 24 hours later, and a frozen block was prepared. A frozen slice having a thickness of 50 μm was prepared from the prepared block by using Cryostat (CM3050S, Leica Biosystems), and a 0.2% Triton-X solution was added as permeabilization treatment to allow the mixture to react for 10 minutes. Nerve fiber was allowed to react with Anti-PGP9.5 antibody (Ultraclone Ltd.) at 4° C. overnight, then it was washed with PBST, and allowed to react with a secondary fluorescence antibody (Goat anti-Rabbit IgG Alexa Fluor 488, Invitrogen). After the reaction was done at room temperature for one hour, the nerve fiber was washed, rinsed, followed by dropwise addition of […] with DAPI H-1200 (Vector Laboratories), and enclosed, and two to three images of each sample captured at 200-fold magnification were saved (Scale bar=100 μm) by using a fluorescence microscope BZ-X800 (Keyence Corporation).

[3] = system: liver of OXA-treated rats; experiment: Pathological assessment of liver disorder caused by oxaliplatin (HE staining); type: in vivo, rat; conditions: PC-SOD 1 mg/kg, mangafodipir dose not given, FIG. 5
Source text: A liver tissue was collected and fixed with 10% neutral buffered formalin to prepare a paraffin block by using Histos 5 (Milestone) and an embedding center (EG1160, Leica). The sample block was thinly sliced at a thickness of 3 μm by using a microtome (MR2245, Leica) to prepare a slide. The prepared slide was stained by HE staining, enclosed, and observed at 200 and 400-fold magnifications by using the optical microscope function of All-in-One Fluorescence Microscope (BZ-X800, Keyence Corporation). Observation and assessment were performed by observing the whole section. Two to four representative tissue images were randomly taken up, and alteration in the tissue structure, such as inflammation and necrosis, was observed and assessed (Scale bar=200 μm).

[4] = system: PC12 cells differentiated by NGF; experiment: Neurite retraction in NGF-differentiated PC12 cells caused by anticancer agents; type: cell-based, rat; conditions: 24 hours; for neurite retraction caused by oxaliplatin: oxaliplatin 20 μM
Method: Rat adrenal gland pheochromocytoma-derived PC12 cells are known to be differentiated into neuron-like cells having neurites by nerve growth factor (NGF) and are widely used as a nerve cell model. To assess the neurite-protective action of PC-SOD, the effect of PC-SOD in neurite disorder caused by various anticancer agents was analyzed by using PC12 cells differentiated by NGF.
PC12 cells were seeded on a 24-well plate coated with collagen at 5 000 cells/well. […] The images of cells were captured by using a microscope (BZ-X800, Keyence Corporation), and the neurite lengths were measured by using an image analysis software ImageJ (NIH).
(§1) PC12 cells were seeded on a 24-well plate coated with collagen at 5 000 cells/well. […] After neurite elongation, cells were cultured by using differentiation media each containing carboplatin (with a final concentration of 50 μM) alone or carboplatin and PC-SOD (with final concentrations of 10, 20, 50, and 100 μg/mL) for 24 hours. The images of cells were captured by using a microscope (BZ-X800, Keyence Corporation), and the neurite lengths were measured by using an image analysis software ImageJ (NIH).
as §1, with “containing paclitaxel (abbreviated as PTX in the figure of results) alone” for “containing carboplatin”, “of 0.1” for “of 50”, “μM)” for “μM) alone”, “or paclitaxel” for “or carboplatin”, “10,” for “10, 20,”

lecithinized superoxide dismutase [PC-SOD]
decrease in pain sensation threshold caused by OXA (von Frey test) ([1]; PC-SOD 1 mg/kg caudal vein): significantly suppressed
decrease in pain sensation threshold caused by OXA (von Frey test) ([1]; PC-SOD 0.1, 0.3 and 1 mg/kg caudal vein): suppressed by PC-SOD in a concentration-dependent manner
decrease in density of intraepidermal nerve fiber caused by OXA [2]: a suppressive effect on the decrease in density of intraepidermal nerve fiber caused by OXA was observed
necrosis of liver cells caused by OXA [3]: a suppressive effect on necrosis of liver cells caused by OXA was shown
neurite retraction caused by carboplatin ([4]; carboplatin 50 μM, PC-SOD 10, 20, 50, 100 μg/mL, FIG. 7-2): suppressed by simultaneous addition of PC-SOD dependently on the PC-SOD concentration
neurite retraction caused by cisplatin ([4]; cisplatin 33 μM, PC-SOD 10, 50, 100 μg/mL, FIG. 7-1): significantly suppressed as compared with addition of cisplatin alone
neurite retraction caused by oxaliplatin ([4]; PC-SOD 10, 50, 100 μg/mL, FIG. 7-1): markedly suppressed by simultaneous addition of PC-SOD dependently on the PC-SOD concentration
neurite retraction caused by oxaliplatin ([4]; test substance 50 μg/mL, FIG. 8): suppressed almost completely
neurite retraction caused by paclitaxel ([4]; paclitaxel 0.1 μM, PC-SOD 10, 50, 100 μg/mL, FIG. 7-3): suppressed by simultaneous addition of PC-SOD dependently on the PC-SOD concentration
